According to PubChem BioAssay (NCI):
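Cells were grown in 96-well plates and exposed to each compound for 48 hours at five concentrations; endpoints were interpolated linearly between bracketing concentrations, or set to the highest concentration if not reached. GI50 marks 50% less growth. TGI denotes the concentration required for complete inhibition of growth.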

Legend:
Experiment in all cases: NCI-60 cell line screen, 48 h
U251 CNS = tested on: U251 CNS
MCF7 breast = tested on: MCF7 breast
RXF 393 renal = tested on: RXF 393 renal
HS 578T breast = tested on: HS 578T breast
MDA-MB-435 = tested on: MDA-MB-435
HOP-92 NSCLC = tested on: HOP-92 NSCLC
MALME-3M melanoma = tested on: MALME-3M melanoma
ACHN renal = tested on: ACHN renal
SK-MEL-2 melanoma = tested on: SK-MEL-2 melanoma
NCI-H23 lung = tested on: NCI-H23 lung
OVCAR-3 ovarian = tested on: OVCAR-3 ovarian
NCI-H226 lung = tested on: NCI-H226 lung
CCRF-CEM leukemia = tested on: CCRF-CEM leukemia
HCT-116 colon = tested on: HCT-116 colon
RPMI-8226 leukemia = tested on: RPMI-8226 leukemia
OVCAR-4 ovarian = tested on: OVCAR-4 ovarian
SF-268 CNS = tested on: SF-268 CNS
NCI-H460 lung = tested on: NCI-H460 lung
OVCAR-5 ovarian = tested on: OVCAR-5 ovarian
PC-3 prostate = tested on: PC-3 prostate
HOP-62 NSCLC = tested on: HOP-62 NSCLC
SNB-75 CNS = tested on: SNB-75 CNS
HCC-2998 colon = tested on: HCC-2998 colon
SN12C renal = tested on: SN12C renal
SK-MEL-5 melanoma = tested on: SK-MEL-5 melanoma
SR leukemia = tested on: SR leukemia
SK-MEL-28 melanoma = tested on: SK-MEL-28 melanoma
HL-60(TB) leukemia = tested on: HL-60(TB) leukemia
A549 NSCLC = tested on: A549 NSCLC
TK-10 renal = tested on: TK-10 renal
UACC-257 melanoma = tested on: UACC-257 melanoma
HCT-15 colon = tested on: HCT-15 colon
T-47D breast = tested on: T-47D breast
LOX IMVI melanoma = tested on: LOX IMVI melanoma
SK-OV-3 ovarian = tested on: SK-OV-3 ovarian
SW-620 colon = tested on: SW-620 colon
CAKI-1 renal = tested on: CAKI-1 renal
BT-549 breast = tested on: BT-549 breast
OVCAR-8 ovarian = tested on: OVCAR-8 ovarian
KM12 colon = tested on: KM12 colon
EKVX NSCLC = tested on: EKVX NSCLC
UACC-62 melanoma = tested on: UACC-62 melanoma
SF-539 CNS = tested on: SF-539 CNS
MDA-MB-231 breast = tested on: MDA-MB-231 breast
M14 melanoma = tested on: M14 melanoma
MOLT-4 leukemia = tested on: MOLT-4 leukemia
IGROV1 ovarian = tested on: IGROV1 ovarian
SNB-19 CNS = tested on: SNB-19 CNS
DU-145 prostate = tested on: DU-145 prostate
UO-31 renal = tested on: UO-31 renal
K-562 leukemia = tested on: K-562 leukemia
COLO 205 colon = tested on: COLO 205 colon
NCI/ADR-RES ovarian = tested on: NCI/ADR-RES ovarian
786-0 renal = tested on: 786-0 renal
NCI-H522 lung = tested on: NCI-H522 lung
SF-295 CNS = tested on: SF-295 CNS
A498 renal = tested on: A498 renal
HT29 colon = tested on: HT29 colon

## CN(C)c1cc[n+](/C(NS(=O)(=O)c2cc(C(=O)Nc3ccc(Cl)cc3)c(Cl)cc2[S-])=C(\C#N)C(=O)c2ccccc2)cc1
U251 CNS
  GI50: 61 µM
  TGI: > 100 µM
MCF7 breast
  GI50: 25.1 µM
  TGI: > 100 µM
RXF 393 renal
  GI50: 55.4 µM
  TGI: > 100 µM
HS 578T breast
  GI50: 26.1 µM
  TGI: 67 µM
MDA-MB-435
  GI50: 36.5 µM
  TGI: > 100 µM
HOP-92 NSCLC
  GI50: 13.9 µM
  TGI: 36.3 µM
MALME-3M melanoma
  GI50: 31.7 µM
  TGI: > 100 µM
ACHN renal
  GI50: 50 µM
  TGI: > 100 µM
SK-MEL-2 melanoma
  GI50: 85 µM
  TGI: > 100 µM
NCI-H23 lung
  GI50: 41.2 µM
  TGI: > 100 µM
OVCAR-3 ovarian
  GI50: 26.6 µM
  TGI: 98.6 µM
NCI-H226 lung
  GI50: 21.6 µM
  TGI: 49.3 µM
CCRF-CEM leukemia
  GI50: 33.1 µM
  TGI: > 100 µM
HCT-116 colon
  GI50: 14.9 µM
  TGI: 34.3 µM
RPMI-8226 leukemia
  GI50: 40.9 µM
  TGI: > 100 µM
OVCAR-4 ovarian
  GI50: 18 µM
  TGI: 38.8 µM
SF-268 CNS
  GI50: 40.6 µM
  TGI: > 100 µM
NCI-H460 lung
  GI50: 14.4 µM
  TGI: 49.4 µM
OVCAR-5 ovarian
  GI50: 22.7 µM
  TGI: 53 µM
PC-3 prostate
  GI50: 24.9 µM
  TGI: 75.5 µM
HOP-62 NSCLC
  GI50: 69.5 µM
  TGI: > 100 µM
SNB-75 CNS
  GI50: 31.1 µM
  TGI: > 100 µM
HCC-2998 colon
  GI50: 20.3 µM
  TGI: 57.2 µM
SN12C renal
  GI50: 79.8 µM
  TGI: > 100 µM
SK-MEL-5 melanoma
  GI50: 21.3 µM
  TGI: 81.8 µM
SR leukemia
  GI50: > 100 µM
  TGI: > 100 µM
SK-MEL-28 melanoma
  GI50: 30.8 µM
  TGI: > 100 µM
HL-60(TB) leukemia
  GI50: > 100 µM
  TGI: > 100 µM
A549 NSCLC
  GI50: 41.5 µM
  TGI: > 100 µM
TK-10 renal
  GI50: 29.1 µM
  TGI: > 100 µM
UACC-257 melanoma
  GI50: 90.2 µM
  TGI: > 100 µM
HCT-15 colon
  GI50: 17.4 µM
  TGI: 65.1 µM
T-47D breast
  GI50: 9.64 µM
  TGI: 77.7 µM
LOX IMVI melanoma
  GI50: 49.7 µM
  TGI: > 100 µM
SK-OV-3 ovarian
  GI50: 36.5 µM
  TGI: 99.3 µM
SW-620 colon
  GI50: 32 µM
  TGI: > 100 µM
CAKI-1 renal
  GI50: 18.7 µM
  TGI: 43 µM
BT-549 breast
  GI50: 25.4 µM
  TGI: 82.8 µM
OVCAR-8 ovarian
  GI50: 39.1 µM
  TGI: > 100 µM
KM12 colon
  GI50: 40.6 µM
  TGI: > 100 µM
EKVX NSCLC
  GI50: 29.3 µM
  TGI: 95.9 µM
UACC-62 melanoma
  GI50: 29.3 µM
  TGI: 98.6 µM
SF-539 CNS
  GI50: 11.9 µM
  TGI: 24.8 µM
MDA-MB-231 breast
  GI50: 16.7 µM
  TGI: 48.5 µM
M14 melanoma
  GI50: 35.6 µM
  TGI: > 100 µM
MOLT-4 leukemia
  GI50: 26.8 µM
  TGI: > 100 µM
IGROV1 ovarian
  GI50: 84.7 µM
  TGI: > 100 µM
SNB-19 CNS
  GI50: 37.7 µM
  TGI: > 100 µM
DU-145 prostate
  GI50: 17.2 µM
  TGI: 82.6 µM
UO-31 renal
  GI50: 23.8 µM
  TGI: 54.7 µM
K-562 leukemia
  GI50: 89.4 µM
  TGI: > 100 µM
COLO 205 colon
  GI50: 30 µM
  TGI: > 100 µM
NCI/ADR-RES ovarian
  GI50: > 100 µM
  TGI: > 100 µM
786-0 renal
  GI50: > 100 µM
  TGI: > 100 µM
NCI-H522 lung
  GI50: 23.7 µM
  TGI: 58.5 µM
SF-295 CNS
  GI50: 27.1 µM
  TGI: 68.7 µM

## COC(=O)CN(CC1O[C@@H]2OC(C)(C)O[C@@H]2C1N=[N+]=[N-])C(=O)OCc1ccccc1 (stereo partly specified)
U251 CNS
  TGI: > 100 µM
MCF7 breast
  TGI: > 100 µM
HS 578T breast
  TGI: > 100 µM
MDA-MB-435
  TGI: > 100 µM
HOP-92 NSCLC
  TGI: > 100 µM
ACHN renal
  TGI: > 100 µM
SK-MEL-2 melanoma
  TGI: > 100 µM
A498 renal
  TGI: > 100 µM
OVCAR-3 ovarian
  TGI: > 100 µM
NCI-H226 lung
  TGI: > 100 µM
HCT-116 colon
  TGI: > 100 µM
RPMI-8226 leukemia
  TGI: > 100 µM
OVCAR-4 ovarian
  TGI: > 100 µM
SF-268 CNS
  TGI: > 100 µM
NCI-H460 lung
  TGI: > 100 µM
OVCAR-5 ovarian
  TGI: > 100 µM
PC-3 prostate
  TGI: > 100 µM
HOP-62 NSCLC
  TGI: > 100 µM
SNB-75 CNS
  TGI: > 100 µM
HCC-2998 colon
  TGI: > 100 µM
SN12C renal
  TGI: > 100 µM
SK-MEL-5 melanoma
  TGI: > 100 µM
SR leukemia
  TGI: > 100 µM
SK-MEL-28 melanoma
  TGI: > 100 µM
HL-60(TB) leukemia
  TGI: > 100 µM
A549 NSCLC
  TGI: > 100 µM
TK-10 renal
  TGI: > 100 µM
UACC-257 melanoma
  TGI: > 100 µM
HCT-15 colon
  TGI: > 100 µM
T-47D breast
  TGI: > 100 µM
LOX IMVI melanoma
  TGI: > 100 µM
SK-OV-3 ovarian
  TGI: > 100 µM
SW-620 colon
  TGI: > 100 µM
CAKI-1 renal
  TGI: > 100 µM
BT-549 breast
  TGI: > 100 µM
OVCAR-8 ovarian
  TGI: > 100 µM
KM12 colon
  TGI: > 100 µM
EKVX NSCLC
  TGI: > 100 µM
UACC-62 melanoma
  TGI: > 100 µM
SF-539 CNS
  TGI: > 100 µM
MDA-MB-231 breast
  TGI: > 100 µM
M14 melanoma
  TGI: > 100 µM
MOLT-4 leukemia
  TGI: > 100 µM
IGROV1 ovarian
  TGI: > 100 µM
SNB-19 CNS
  TGI: > 100 µM
DU-145 prostate
  TGI: > 100 µM
UO-31 renal
  TGI: > 100 µM
HT29 colon
  TGI: > 100 µM
K-562 leukemia
  TGI: > 100 µM
COLO 205 colon
  TGI: > 100 µM
NCI/ADR-RES ovarian
  TGI: > 100 µM
786-0 renal
  TGI: > 100 µM
NCI-H522 lung
  TGI: > 100 µM
SF-295 CNS
  TGI: > 100 µM

## CC(=O)OC1C2CCC1C1C2N=NN1c1ccc([N+](=O)[O-])cc1 (stereo unspecified)
U251 CNS
  TGI: > 100 µM
MCF7 breast
  TGI: > 100 µM
HS 578T breast
  TGI: > 100 µM
MDA-MB-435
  TGI: > 100 µM
HOP-92 NSCLC
  TGI: > 100 µM
MALME-3M melanoma
  TGI: > 100 µM
ACHN renal
  TGI: > 100 µM
SK-MEL-2 melanoma
  TGI: > 100 µM
NCI-H23 lung
  TGI: > 100 µM
A498 renal
  TGI: > 100 µM
OVCAR-3 ovarian
  TGI: > 100 µM
NCI-H226 lung
  TGI: > 100 µM
CCRF-CEM leukemia
  TGI: > 100 µM
HCT-116 colon
  TGI: > 100 µM
RPMI-8226 leukemia
  TGI: > 100 µM
OVCAR-4 ovarian
  TGI: > 100 µM
SF-268 CNS
  TGI: > 100 µM
NCI-H460 lung
  TGI: > 100 µM
OVCAR-5 ovarian
  TGI: > 100 µM
PC-3 prostate
  TGI: > 100 µM
HOP-62 NSCLC
  TGI: > 100 µM
SNB-75 CNS
  TGI: > 100 µM
HCC-2998 colon
  TGI: > 100 µM
SN12C renal
  TGI: > 100 µM
SK-MEL-5 melanoma
  TGI: > 100 µM
SR leukemia
  TGI: > 100 µM
SK-MEL-28 melanoma
  TGI: > 100 µM
HL-60(TB) leukemia
  TGI: > 100 µM
A549 NSCLC
  TGI: > 100 µM
TK-10 renal
  TGI: > 100 µM
UACC-257 melanoma
  TGI: > 100 µM
HCT-15 colon
  TGI: > 100 µM
T-47D breast
  TGI: > 100 µM
LOX IMVI melanoma
  TGI: > 100 µM
SK-OV-3 ovarian
  TGI: > 100 µM
SW-620 colon
  TGI: > 100 µM
BT-549 breast
  TGI: > 100 µM
OVCAR-8 ovarian
  TGI: > 100 µM
KM12 colon
  TGI: > 100 µM
EKVX NSCLC
  TGI: > 100 µM
UACC-62 melanoma
  TGI: > 100 µM
SF-539 CNS
  TGI: > 100 µM
MDA-MB-231 breast
  TGI: > 100 µM
M14 melanoma
  TGI: > 100 µM
MOLT-4 leukemia
  TGI: > 100 µM
IGROV1 ovarian
  TGI: > 100 µM
SNB-19 CNS
  TGI: > 100 µM
DU-145 prostate
  TGI: > 100 µM
UO-31 renal
  TGI: > 100 µM
HT29 colon
  TGI: > 100 µM
COLO 205 colon
  TGI: > 100 µM
NCI/ADR-RES ovarian
  TGI: > 100 µM
786-0 renal
  TGI: > 100 µM
NCI-H522 lung
  TGI: > 100 µM
SF-295 CNS
  TGI: > 100 µM
